Experimental data taken from BigSolDB 2.1.

Cl.N[C@@H](Cc1ccccc1)C(=O)OCc1ccccc1
solubility (mole fraction)
Conditions	283.15 K	288.15 K	293.15 K	298.15 K	303.15 K	313.15 K	323.15 K
in acetone	8e-05	–	0.000134	–	0.000224	0.000347	0.000511
in acetonitrile	5.4e-05	0.000115	0.000188	0.000262	0.000365	–	–
in ethanol	0.00311	–	0.00396	–	0.00491	0.00625	0.00832
in ethyl acetate	–	2.6e-05	3.8e-05	–	6.3e-05	0.000116	0.000181
in isobutanol	–	0.00056	0.000879	–	0.00121	0.00174	0.00256
in isopropanol	0.000417	–	0.000588	–	0.000882	0.00123	0.00178
in methanol	0.0158	–	0.0186	–	0.0223	0.0274	0.0324
in n-butanol	0.0011	–	0.0015	–	0.00191	0.00263	0.0039
in n-pentanol	0.000703	–	0.00103	–	0.00158	0.00213	0.00307
in n-propanol	0.00168	–	0.00203	–	0.00281	0.00386	0.00515
in water	0.000969	–	0.0012	–	0.0015	0.00197	0.00266
